Test results taken from ChEMBL document CHEMBL2150932, “Structure-activity relationships and molecular modeling of 1,2,4-triazoles as adenosine receptor antagonists” (ACS Med Chem Lett, 2012).

Assays:
Adenosine receptor A3 = target: T1, Adenosine receptor A3 (Homo sapiens, UniProt P0DMS8); assay: Displacement of […] from human A3 adenosine receptor expressed in CHO cells after 60 mins by liquid scintillation counting; assay type: cell-based
T1 sequence (P0DMS8 whole entry): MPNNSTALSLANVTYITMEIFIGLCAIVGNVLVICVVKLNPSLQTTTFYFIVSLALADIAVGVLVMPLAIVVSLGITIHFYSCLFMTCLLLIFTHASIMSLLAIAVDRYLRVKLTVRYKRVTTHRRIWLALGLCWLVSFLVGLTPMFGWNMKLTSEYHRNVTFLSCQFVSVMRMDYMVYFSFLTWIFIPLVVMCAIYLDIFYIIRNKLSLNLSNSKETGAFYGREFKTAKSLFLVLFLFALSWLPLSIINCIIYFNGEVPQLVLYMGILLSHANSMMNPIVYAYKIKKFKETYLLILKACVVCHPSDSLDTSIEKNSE

Adenosine receptor A2a [1] = target: T2, Adenosine receptor A2a (Homo sapiens, UniProt P29274); assay: Displacement of [3H]CGS21680 from human A2A adenosine receptor expressed in HEK293 cells after 60 mins by liquid scintillation counting; assay type: cell-based
Adenosine receptor A1 = target: T3, Adenosine receptor A1 (Homo sapiens, UniProt P30542); assay: Inhibition of human A1 adenosine receptor expressed in CHO cells after 60 mins by liquid scintillation counting; assay type: cell-based
T3 sequence (P30542 whole entry): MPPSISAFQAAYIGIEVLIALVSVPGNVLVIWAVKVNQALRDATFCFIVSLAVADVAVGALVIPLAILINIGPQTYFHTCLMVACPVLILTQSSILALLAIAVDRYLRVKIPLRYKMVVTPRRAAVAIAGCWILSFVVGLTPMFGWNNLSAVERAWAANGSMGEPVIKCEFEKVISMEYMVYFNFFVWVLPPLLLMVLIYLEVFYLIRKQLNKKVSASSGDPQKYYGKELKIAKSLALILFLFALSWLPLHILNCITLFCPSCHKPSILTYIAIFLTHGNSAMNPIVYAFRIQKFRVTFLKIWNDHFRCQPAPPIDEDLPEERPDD

[2] = target: T4, Adenosine receptor A3 (Homo sapiens) (UniProt P0DMS8); assay: Displacement of […] from human A3 adenosine receptor expressed in CHO cells at 10 uM after 60 mins by liquid scintillation counting; assay type: cell-based
T4 sequence (whole entry): T1 sequence (P0DMS8 whole entry)

[3] = target: T5, Adenosine receptor A2b (Homo sapiens) (UniProt P29275); assay: Antagonist activity at human A2B adenosine receptor expressed in CHO cells assessed as inhibition of NECA-induced cAMP accumulation at 10 uM after 20 mins; assay type: functional, cell-based
T5 sequence (whole entry): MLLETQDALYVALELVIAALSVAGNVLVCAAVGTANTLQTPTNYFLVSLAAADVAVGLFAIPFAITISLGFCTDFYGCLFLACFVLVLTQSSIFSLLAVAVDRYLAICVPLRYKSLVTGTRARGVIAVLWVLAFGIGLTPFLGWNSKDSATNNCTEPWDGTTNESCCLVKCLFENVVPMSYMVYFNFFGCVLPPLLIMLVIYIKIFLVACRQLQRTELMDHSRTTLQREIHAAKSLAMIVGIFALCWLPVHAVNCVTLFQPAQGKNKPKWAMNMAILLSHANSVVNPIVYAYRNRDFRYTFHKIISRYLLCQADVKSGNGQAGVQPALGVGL

[4] = target: T6, Adenosine receptor A1 (Homo sapiens) (UniProt P30542); assay: Inhibition of human A1 adenosine receptor expressed in CHO cells at 10 uM after 60 mins by liquid scintillation counting; assay type: cell-based
T6 sequence (whole entry): T3 sequence (P30542 whole entry)

Adenosine receptor A2a [5] = target: T2, Adenosine receptor A2a; assay: Displacement of [3H]CGS21680 from human A2A adenosine receptor expressed in HEK293 cells at 10 uM after 60 mins by liquid scintillation counting; assay type: cell-based

T2 sequence (P29274 whole entry): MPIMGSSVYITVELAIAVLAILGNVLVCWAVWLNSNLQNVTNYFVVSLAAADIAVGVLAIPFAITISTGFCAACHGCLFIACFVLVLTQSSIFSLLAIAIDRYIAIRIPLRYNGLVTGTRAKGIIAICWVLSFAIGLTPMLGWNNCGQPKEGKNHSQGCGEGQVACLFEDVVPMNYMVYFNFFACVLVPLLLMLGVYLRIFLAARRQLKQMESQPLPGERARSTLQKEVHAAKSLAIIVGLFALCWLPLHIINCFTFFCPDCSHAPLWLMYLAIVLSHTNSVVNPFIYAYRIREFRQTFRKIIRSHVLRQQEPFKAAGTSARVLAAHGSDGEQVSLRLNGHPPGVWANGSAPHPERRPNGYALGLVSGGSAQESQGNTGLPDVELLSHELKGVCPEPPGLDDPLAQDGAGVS

Ki (Adenosine receptor A3) | Ki (Adenosine receptor A2a [1]) | Ki (Adenosine receptor A1) | inhibition [2] | inhibition [3] | inhibition [4] | inhibition (Adenosine receptor A2a [5]) | Compound
– | – | – | 48% | -3% | 6% | 26% | Cc1ccccc1-c1n[nH]c(NC(=O)[C@@H](C)Oc2ccccc2)n1
– | – | – | – | -2% | 31% | – | O=C(Nc1nc(-c2ccccc2)n[nH]1)c1ccc(Cl)cc1
– | – | – | – | 72% | – | – | O=C(Nc1nc(-c2ccccc2)n[nH]1)c1ccccc1
1500 nM | 3500 nM | – | – | -10% | 2% | – | O=C(COc1ccccc1)Nc1nc(-c2ccc(F)cc2)n[nH]1
2300 nM | 1800 nM | – | – | – | – | – | O=C(COc1ccccc1)Nc1nnc(-c2ccccc2)[nH]1
200 nM | 1100 nM | 800 nM | – | – | – | – | CCCC(=O)Nc1nnc(-c2ccccc2)[nH]1
– | – | – | 50% | 11% | 2% | 2% | Cc1ccc(-c2n[nH]c(NC(=O)COc3ccccc3F)n2)cc1
– | – | – | – | 10% | 18% | 43% | CC(=O)Nc1nc(-c2ccccc2)n[nH]1
300 nM | 2500 nM | – | – | 8% | 39% | – | CCC(=O)Nc1nc(-c2ccccc2)n[nH]1
2200 nM | 3900 nM | – | – | 9% | 46% | – | O=C(COc1ccc2c(c1)CCC2)Nc1nc(-c2ccccc2)n[nH]1
300 nM | 400 nM | 1900 nM | – | – | – | – | O=C(Nc1nnc(-c2ccccc2)[nH]1)c1ccccc1
2700 nM | 3200 nM | 1600 nM | – | – | – | – | Cc1cc(C)cc(OCC(=O)Nc2nnc(-c3ccccc3)[nH]2)c1
– | – | – | – | 13% | 16% | – | Cc1ccccc1OCC(=O)Nc1nc(-c2ccccc2)n[nH]1
300 nM | – | – | – | – | – | – | CC(=O)Nc1nnc(-c2ccccc2)[nH]1
– | – | – | – | 6% | 41% | – | CC(C)(Oc1ccc(Cl)cc1)C(=O)Nc1nc(-c2ccccc2)n[nH]1
– | 1200 nM | – | – | – | – | – | Cc1cccc(O[C@H](C)C(=O)Nc2nnc(-c3ccccc3)[nH]2)c1
– | – | – | – | 10% | 22% | – | COc1ccccc1NC(=O)Nc1nc(-c2ccccc2)n[nH]1
500 nM | 8800 nM | – | – | – | – | – | CC(C)(Oc1ccc(Cl)cc1)C(=O)Nc1nnc(-c2ccccc2)[nH]1
1000 nM | – | – | – | – | – | – | COc1ccccc1OCC(=O)Nc1nnc(-c2ccc(C)cc2)[nH]1

Continued, molecule first:

Compound | Ki (Adenosine receptor A3) | Ki (Adenosine receptor A2a [1]) | Ki (Adenosine receptor A1) | inhibition [2] | inhibition [3] | inhibition [4] | inhibition (Adenosine receptor A2a [5])
Cc1ccc(-c2nnc(NC(=O)COc3ccccc3)[nH]2)cc1 | 3200 nM | 3600 nM | 6500 nM | – | – | – | –
Cc1cccc(-c2n[nH]c(NC(=O)[C@H](C)Oc3ccccc3)n2)c1 | – | – | – | 32% | – | 13% | 23%
Cc1cccc(O[C@H](C)C(=O)Nc2nc(-c3ccccc3)n[nH]2)c1 | – | – | – | – | 18% | – | –
O=C(COCc1ccccc1)Nc1nc(-c2ccccc2)n[nH]1 | 4600 nM | 5000 nM | 8100 nM | – | 7% | – | –
C[C@@H](Oc1cccc(Cl)c1)C(=O)Nc1nnc(-c2ccccc2)[nH]1 | 2600 nM | 1000 nM | 1100 nM | – | – | – | –
C[C@@H](Sc1ccccc1)C(=O)Nc1nc(-c2ccccc2)n[nH]1 | – | – | – | – | 21% | – | –
Cc1cccc(-c2n[nH]c(NC(=O)[C@@H](C)Oc3ccccc3)n2)c1 | 6300 nM | 1800 nM | – | – | – | 12% | –
CCCC(=O)Nc1nc(-c2ccccc2)n[nH]1 | – | – | – | – | 5% | – | –
C[C@@H](Sc1ccccc1)C(=O)Nc1nnc(-c2ccccc2)[nH]1 | 1900 nM | 2200 nM | 3300 nM | – | – | – | –
Cc1ccc(-c2n[nH]c(NC(=O)COc3ccccc3)n2)cc1 | – | – | – | – | 23% | – | –
C[C@@H](Oc1ccc(Cl)cc1)C(=O)Nc1nc(-c2ccccc2)n[nH]1 | 2500 nM | 4000 nM | 3900 nM | – | 51% | – | –
Cc1cccc(C)c1OCC(=O)Nc1nc(-c2ccccc2)n[nH]1 | 5500 nM | 1700 nM | – | – | 43% | 49% | –
COc1ccc(CC(=O)Nc2nc(-c3ccccc3)n[nH]2)cc1 | – | – | – | – | -6% | 29% | –
Cc1ccccc1OCC(=O)Nc1nnc(-c2ccccc2)[nH]1 | 1000 nM | 1700 nM | – | – | – | – | –
Cc1ccc(O[C@H](C)C(=O)Nc2nc(-c3ccccc3)n[nH]2)cc1 | 1400 nM | 6400 nM | – | – | -6% | 38% | –
C[C@@H](Oc1cccc(Cl)c1)C(=O)Nc1nc(-c2ccccc2)n[nH]1 | – | – | – | – | 28% | – | –
C[C@@H](Oc1ccccc1F)C(=O)Nc1nc(-c2ccccc2)n[nH]1 | – | – | – | – | 31% | – | –

Compound | Ki (Adenosine receptor A3) | Ki (Adenosine receptor A2a [1]) | Ki (Adenosine receptor A1) | inhibition [2] | inhibition [3] | inhibition [4] | inhibition (Adenosine receptor A2a [5])
COc1ccccc1OCC(=O)Nc1nc(-c2ccc(C)cc2)n[nH]1 | – | – | – | – | -10% | 8% | 49%
COc1ccccc1NC(=O)Nc1nnc(-c2ccccc2)[nH]1 | 300 nM | 200 nM | – | – | – | – | –
O=C(COc1ccccc1)Nc1nc(-c2ccccc2)n[nH]1 | – | – | – | – | 16% | 20% | –
Cc1ccc(C(=O)Nc2nc(-c3ccccc3)n[nH]2)cc1 | 100 nM | 300 nM | 1300 nM | – | 29% | – | –
O=C(CCc1ccccc1)Nc1nc(-c2ccccc2)n[nH]1 | 8300 nM | 3400 nM | – | – | 40% | 40% | –
C[C@@H](Oc1ccccc1)C(=O)Nc1nc(-c2ccccc2)n[nH]1 | 3300 nM | 1000 nM | 5200 nM | – | 23% | – | –
Cc1ccc(O[C@H](C)C(=O)Nc2nc(-c3ccco3)n[nH]2)cc1 | 5300 nM | – | – | – | – | 37% | 38%
Cc1cccc(-c2nnc(NC(=O)C(C)Oc3ccccc3)[nH]2)c1 (configuration not stated) | 5900 nM | 2000 nM | – | – | – | – | –
CC[C@@H](Oc1ccccc1)C(=O)Nc1nc(-c2ccccc2)n[nH]1 | 1900 nM | 1400 nM | 1500 nM | – | -9% | – | –
O=C(Nc1nc(-c2ccccc2)n[nH]1)C1CCCO1 (configuration not stated) | 3100 nM | 5900 nM | 3200 nM | – | -7% | – | –
Cc1cccc(-c2n[nH]c(NC(=O)C(C)Oc3ccccc3)n2)c1 (configuration not stated) | – | – | – | – | 5% | 8% | –
Cc1cc(C)cc(OCC(=O)Nc2nc(-c3ccccc3)n[nH]2)c1 | – | – | – | – | -5% | – | –
C[C@@H](Oc1ccccc1F)C(=O)Nc1nnc(-c2ccccc2)[nH]1 | 2600 nM | 1000 nM | 3700 nM | – | – | – | –
Cc1cccc(OCC(=O)Nc2nc(-c3ccccc3)n[nH]2)c1 | 1500 nM | 2000 nM | 2300 nM | – | 8% | – | –
O=C(Nc1nnc(-c2ccccc2)[nH]1)c1ccc(Cl)cc1 | 200 nM | 2800 nM | – | – | – | – | –
COc1ccccc1C(=O)Nc1nc(-c2ccccc2)n[nH]1 | 600 nM | 200 nM | 500 nM | – | 16% | – | –
